Common to all, as to experiment: relative viability (nuclei count vs DMSO), 5 days (fraction); higher = more cells survive
Compound in test [1]: CN1C=C(C2=CC=CC=C21)/C=C\3/C4=C(C=CC=N4)NC3=O + Cc1nc(Nc2ncc(C(=O)Nc3c(C)cccc3Cl)s2)cc(N2CCN(CCO)CC2)n1 [Dasatinib] (partner 0.075 µM)
Summed up:
(§1)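 The day after seeding in 1536-well plates, lung cancer cell lines were treated by pin tool with a single drug, or with a fixed anchor-drug dose together with five library-drug doses (not always all listed) in √10 steps. After 5 days, a combined fix-and-stain solution (final 0.05% Triton X-100, 1% formaldehyde, 1 ug/ml Hoechst) was added. Nuclei counted on 4× images gave relative viability as treated counts over vehicle counts, reported as the median of duplicate plates.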

Compound in the test “Trametinib + Crizotinib”: CC(=O)Nc1cccc(-n2c(=O)n(C3CC3)c(=O)c3c(Nc4ccc(I)cc4F)n(C)c(=O)c(C)c32)c1 [Trametinib] + C[C@@H](Oc1cc(-c2cnn(C3CCNCC3)c2)cnc1N)c1c(Cl)ccc(F)c1Cl [Crizotinib] (partner 1 µM)
The method in brief: as §1

Compound in test [2]: CN1C=C(C2=CC=CC=C21)/C=C\3/C4=C(C=CC=N4)NC3=O + Cc1nc(NC(=O)N2CCC[C@H]2C(N)=O)sc1-c1ccnc(C(C)(C)C(F)(F)F)c1 [Alpelisib] (partner 2 µM)
Summed up:
as §1

Compound in test [3]: CN1C=C(C2=CC=CC=C21)/C=C\3/C4=C(C=CC=N4)NC3=O + CC(=O)Nc1cccc(-n2c(=O)n(C3CC3)c(=O)c3c(Nc4ccc(I)cc4F)n(C)c(=O)c(C)c32)c1 [Trametinib] (partner 0.02 µM)
Summed up: as §1

The text below walks through data of the supplement of paper PMC10307832.

As to UMC-11, the relative viability was 0.556 in test [1] (first compound 0.02 µM); 0.449 in test [1] (first compound 0.06325 µM); 0.367 in test [1] (first compound 0.2 µM); 0.41 in test [1] (first compound 0.6325 µM); 0.632 in test [1] (first compound 2 µM); 0.634 in the test with Trametinib + Crizotinib (first compound 0.0025 µM). In addition, the relative viability in the test with Trametinib + Crizotinib (first compound 0.007906 µM) was 0.591; with Trametinib + Crizotinib (first compound 0.025 µM), 0.679; with Trametinib + Crizotinib (first compound 0.07906 µM), 0.647; in the test with Trametinib + Crizotinib (first compound 0.25 µM) it was 0.566; in test [2] (first compound 0.02 µM) it was 0.725; in test [2] (first compound 0.06325 µM), 1.02. Also, the relative viability is 1.01 in test [2] (first compound 0.2 µM); 1.05 in test [2] (first compound 0.6325 µM); 1.12 in test [2] (first compound 2 µM); 0.638 in test [3] (first compound 0.02 µM); 0.549 in test [3] (first compound 0.06325 µM); 0.552 in test [3] (first compound 0.2 µM). Moreover, the results for the relative viability in test [3] (first compound 0.6325 µM) and in test [3] (first compound 2 µM) were 0.671 and 0.78, respectively.
